# Legend:
# Type in all cases: cell-based
# IRF = assay: In vitro induction of IRF in THP1 dual cells (Lucia reporter, ISG54 promoter)
# Protocol: (§1) Example 2. In Vitro Induction of IRF and NF-κβ in THP1 Cells
# (§2) THP1 dual cells grown in complete media were treated with various concentrations of a compound of the present disclosure or DMSO control. Dual cells carry both secreted embryonic alkaline phosphatase (SEAP) reporter gene under the control of an IFN-β minimal promoter fused to five copies of the NF-kB consensus transcriptional response element to measure NF-kB activity and Lucia reporter gene under the control of an ISG54 minimal promoter to measure IRF activity. After 20 h incubation, IRF activity was assessed using QUANTI-luc to measure levels of Lucia and NF-kB activity was determined by measure SEAP levels at 620-655 nm. % induction was calculated from fold change in luminescence/absorbance compared to DMSO treated sample. […] EC50 values were generated by curve fit in Xlfit.
# (§3) Cells grown in complete media were treated with various concentrations of a compound of the disclosure or DMSO control. Dual cells carry both secreted embryonic alkaline phosphatase (SEAP) reporter gene under the control of an IFN-β minimal promoter fused to five copies of the NF-kB consensus transcriptional response element to measure NF-kB activity and Lucia reporter gene under the control of an ISG54 minimal promoter to measure IRF activity. After 20 h incubation, IRF activity was assessed using QUANTI-luc to measure levels of Lucia and NF-kB activity was determined by measure SEAP levels at 620-655 nm. % induction was calculated from fold change in luminescence/absorbance compared to DMSO treated sample. EC50 values are generated by curve fit in Xlfit.
# NF-κβ = assay: In vitro induction of NF-κβ in THP1 dual cells (SEAP reporter)
# Protocol: as §1, §2, §3
# [1] = test system: RAW-Lucia-ISG-STING KO cells; assay: IRF-type I IFN secreted luciferase in RAW-Lucia-ISG-STING KO cells; settings: compound alone, 19 hours
# Protocol: FIG. 4 depicts RAW-Lucia-ISG-WT and RAW-Lucia-ISG-STING KO cells were stimulated with compound 2 or compound 4, alone for 19 hours. Activity of secreted luciferase (IRF-type I IFN activity) in cell culture supernatant was measured using Invivogen's Quanti-luc. Data is shown as fold induction over DMSO treated cells (mean±standard deviation of triplicate wells per stimulant). EC50 values were calculated using XLfit.
# STING KO cells = assay: IRF and NF-kB reporter activity in STING KO cells; settings: 20 hours
# Protocol: (§4) FIG. 21 depicts cells stably expressing both or either one of the reporters to measure IRF and NF-kB activity were treated with a range of concentrations of compound 1 or DMSO control for 20 hours. IRF activity was assessed using QUANTI-luc to measure levels of Lucia and NF-kB activity was determined by measure SEAP levels at 620-655 nm. % induction was calculated from fold change in luminescence/absorbance compared to DMSO treated sample. EC50 values are generated by curve fit in Xlfit.
# as §4, with “22” for “21”, “2” for “1”
# as §4, with “24” for “21”, “3” for “1”
# as §4, with “27” for “21”, “4” for “1”
# as §3
# wild type STING = target: T1, wild type STING (Homo sapiens, UniProt Q86WV6, H232R); assay: IRF/NF-kB reporter cells, wild type STING; settings: 20 hours
# T1 construct: expressed in transfected cells; host or cells: THP1-Dual-KI-STING-R232 (made from THP-Dual-STING KO cells)
# T1 sequence (Q86WV6 whole entry H232R): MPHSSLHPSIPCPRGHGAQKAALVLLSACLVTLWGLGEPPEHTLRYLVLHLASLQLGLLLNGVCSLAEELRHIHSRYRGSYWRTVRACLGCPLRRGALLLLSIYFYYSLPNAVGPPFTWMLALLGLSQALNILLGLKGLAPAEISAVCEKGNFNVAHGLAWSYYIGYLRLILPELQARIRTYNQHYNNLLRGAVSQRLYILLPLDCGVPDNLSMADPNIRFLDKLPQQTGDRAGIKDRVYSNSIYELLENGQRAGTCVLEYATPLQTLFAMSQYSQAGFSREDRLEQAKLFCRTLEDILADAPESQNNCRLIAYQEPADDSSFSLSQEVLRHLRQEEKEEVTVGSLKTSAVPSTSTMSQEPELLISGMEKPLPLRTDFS
# Protocol: as §4, with “22” for “21”, “2” for “1”
# as §4, with “24” for “21”, “3” for “1”
# as §4, with “27” for “21”, “4” for “1”
# (§5) Cells grown in complete media were treated with various concentrations of a compound of the disclosure or DMSO control. […] After 20 h incubation, IRF activity was assessed using QUANTI-luc to measure levels of Lucia and NF-kB activity was determined by measure SEAP levels at 620-655 nm. % induction was calculated from fold change in luminescence/absorbance compared to DMSO treated sample. […]
# [2] = target: T2, R71H-G230A-R293Q (HAQ) variant of hSTING (Homo sapiens, UniProt Q86WV6, G230A/H232R/R293Q/R71H); assay: IRF/NF-kB reporter cells, STING HAQ variant; settings: 20 hours
# T2 construct: THP1-Dual-WT cells express STING-HAQ variant; endogenous in cells; host or cells: THP1-Dual-WT cells
# T2 sequence (Q86WV6 whole entry R71H/G230A/H232R/R293Q): as the sequence (Q86WV6 whole entry H232R) above, with R71H, G230A, R293Q counted along it
# Protocol: as §4, with “22” for “21”, “2” for “1”
# as §4, with “24” for “21”, “3” for “1”
# as §4, with “27” for “21”, “4” for “1”
# as §5
# wt-mSTING = target: T3, wt-mSTING (Mus musculus, UniProt Q3TBT3); assay: IRF/NF-kB reporter cells, wt-mSTING; settings: 20 hours
# T3 construct: endogenous in cells
# T3 sequence (Q3TBT3 1-378): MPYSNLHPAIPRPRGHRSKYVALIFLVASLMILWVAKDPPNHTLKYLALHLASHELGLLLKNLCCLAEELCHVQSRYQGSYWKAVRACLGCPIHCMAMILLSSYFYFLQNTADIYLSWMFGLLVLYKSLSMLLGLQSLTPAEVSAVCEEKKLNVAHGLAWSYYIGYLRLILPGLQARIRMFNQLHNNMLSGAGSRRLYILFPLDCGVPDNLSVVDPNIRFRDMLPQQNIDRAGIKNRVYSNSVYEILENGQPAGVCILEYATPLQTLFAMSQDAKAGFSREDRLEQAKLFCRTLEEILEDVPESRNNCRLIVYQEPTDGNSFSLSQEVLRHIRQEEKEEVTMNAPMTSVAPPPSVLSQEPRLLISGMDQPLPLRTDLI
# Protocol: as §4, with “22” for “21”, “2” for “1”
# as §4, with “24” for “21”, “3” for “1”
# as §4, with “27” for “21”, “4” for “1”
# as §5
# [3] = test system: mouse bone marrow derived dendritic cells (DCs) and macrophages; assay: ISG gene expression (Taqman) in mouse bone marrow derived dendritic cells and macrophages; settings: 20 hours
# Protocol: FIG. 23 depicts cryopreserved mouse bone marrow derived dendritic cells (DCs) and macrophages treated with a range of concentrations of compound 2 or DMSO control for 20 hours. Cell pellets were harvested to collect total RNA. The gene expression levels of ISGs were measured by Taqman Assays.
# [4] = Homo sapiens, THP-1, 20 h incubation
EC50 (IRF; [4]) [nM],EC50 (NF-κβ; [4]) [nM],SMILES,EC50 (IRF; 20 h incubation) [nM],EC50 (NF-κβ; 20 h incubation) [nM],IRF activity in STING KO cells [1],IRF activity in STING KO cells (STING KO cells),NF-κβ in STING KO cells (STING KO cells),activity against wild type STING (wild type STING),activity against R71H-G230A-R293Q (HAQ) variant of hSTING [2],activity against wt-mSTING (wt-mSTING),ISG expression [3],STING dependence of activity (STING KO cells)
–,–,CCCCCCCCCCOc1ccc(C(=O)Oc2ccc(CSP3(=O)OC[C@H]4O[C@@H](n5cnc6c(N)ncnc65)[C@H](OP(=O)(O)OC[C@H]5O[C@@H](n6ccc(=O)[nH]c6=O)[C@H](F)[C@@H]5O3)[C@@H]4F)cc2)cc1 (some centres unmarked) [Compound 2],< 50,1000 to 2000,Neither compound induced IRF activity,did not induce,did not induce,possess activity,possess activity,possess activity,induces ISG expression,–
> 2000,> 2000,Nc1ncnc2c1ncn2[C@@H]1O[C@@H]2COP(=O)(O)O[C@H]3[C@@H](F)[C@H](n4ccc(=O)[nH]c4=O)O[C@@H]3COP(=O)(O)O[C@@H]1[C@@H]2F [Compound 1],–,–,–,did not induce,did not induce,–,–,–,–,possess STING dependent activity

# Reference: US11638716B2, “Compounds, compositions, and methods for the treatment of disease” (F-star Therapeutics, Inc., priority 2017, dated 2023)
